Source: the supplement of paper PMC8967900

Key:
Assay in all cases: selective drug sensitivity score (sDSS, relative to normal bone marrow) (sDSS (score)); higher = more potent and effective on the cell line relative to normal bone marrow cells
Details in all cases: 72 h
380 = tested on: 380
ALL-PO = tested on: ALL-PO
ALL-SIL = tested on: ALL-SIL
COG-LL-317 = tested on: COG-LL-317
COG-LL-355h = tested on: COG-LL-355h
COG-LL-394h = tested on: COG-LL-394h
HAL-01 = tested on: HAL-01
KARPAS-45 = tested on: KARPAS-45
KASUMI-2 = tested on: KASUMI-2
KOPN-8 = tested on: KOPN-8
MHH-CALL-2 = tested on: MHH-CALL-2
MHH-CALL-4 = tested on: MHH-CALL-4
MN-60 = tested on: MN-60
NALM-6 = tested on: NALM-6
P30-OHKUBO = tested on: P30-OHKUBO
PEER = tested on: PEER
RPMI-8402 = tested on: RPMI-8402
SEM cells = tested on: SEM cells
SUP-B15 = tested on: SUP-B15
TMD5 = tested on: TMD5
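Note: ALL cell lines in 384-well plates, five doses spanning 10,000-fold, each plate scaled between vehicle and 100 µmol/L benzalkonium chloride controls, sDSS an adapted area-under-curve metric.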

SMILES	selective drug sensitivity score 380	selective drug sensitivity score (ALL-PO)	selective drug sensitivity score (ALL-SIL)	selective drug sensitivity score (COG-LL-317)	selective drug sensitivity score (COG-LL-355h)	selective drug sensitivity score (COG-LL-394h)	selective drug sensitivity score (HAL-01)	selective drug sensitivity score (KARPAS-45)	selective drug sensitivity score (KASUMI-2)	selective drug sensitivity score (KOPN-8)	selective drug sensitivity score (MHH-CALL-2)	selective drug sensitivity score (MHH-CALL-4)	selective drug sensitivity score (MN-60)	selective drug sensitivity score (NALM-6)	selective drug sensitivity score (P30-OHKUBO)	selective drug sensitivity score (PEER)	selective drug sensitivity score (RPMI-8402)	selective drug sensitivity score (SEM cells)	selective drug sensitivity score (SUP-B15)	selective drug sensitivity score (TMD5)
CC#CC(=O)N1CC[C@@H](n2c(=O)n(-c3ccc(Oc4ccccc4)cc3)c3c(N)ncnc32)C1 [Tirabrutinib] (top concentration 1000 nM)	1.2	0	0	0	0	0	6.5	2.5	2.9	4.1	0	1.5	0	0	0	0	0	1.1	14.7	1
CC(C)C[C@@H](C(=O)N[C@H](C(=O)OC1CCCC1)c1ccccc1)[C@H](O)C(=O)NO [Tosedostat] (top concentration 10000 nM)	5.76	6.96	1.06	14.9	11.4	1.26	-3.84	8.66	-5.44	10.8	5.76	1.26	-2.44	-1.04	4.96	0.06	2.86	0.86	11	0.46
CS(=O)(=O)c1ccc(-c2cnc(N)c(C(=O)Nc3ccccc3)n2)cc1 [VE-821] (top concentration 10000 nM)	2.54	2.64	4.94	12.7	5.64	-0.66	4.54	1.54	-0.66	8.74	7.84	-0.66	-0.66	-0.66	-0.16	0.54	5.54	2.44	6.94	-0.66
CNC(=O)c1ccccc1Nc1cc(Nc2ccc(N3CCOCC3)cc2OC)ncc1C(F)(F)F [VS-4718] (top concentration 10000 nM)	-5	14	4.3	-0.8	1.3	-0.4	8.7	7.1	-5	-3.1	8.9	6.4	-3.4	0.4	0.4	3.6	8.8	7.9	-3	6.8
Cc1cccc(-c2[nH]c(CNc3ccccc3F)nc2-c2ccc3ncnn3c2)n1 [Vactosertib (TEW-7197)] (top concentration 2500 nM)	0.8	-0.5	-0.5	-0.3	1.2	-0.5	0	-0.5	-0.5	-0.5	-0.3	7.2	-0.1	-0.5	-0.4	-0.5	-0.5	4.5	9	-0.5
O=C(/C=C\n1cnc(-c2cc(C(F)(F)F)cc(C(F)(F)F)c2)n1)NNc1ccccn1 [Verdinexor] (top concentration 1000 nM)	12	7.54	3.74	12.5	8.54	3.64	3.94	7.54	12.9	8.34	1.84	1.84	2.24	11.7	4.34	5.44	8.34	0.34	11.2	0.14
CC[C@@H]1C(=O)N(C)c2cnc(Nc3ccc(C(=O)N[C@H]4CC[C@H](N5CCN(CC6CC6)CC5)CC4)cc3OC)nc2N1C(C)C [Volasertib] (top concentration 1000 nM)	15	16.1	12.7	16.7	6.4	7.7	5.8	19	5.7	12.4	10.6	0.9	0.4	11.9	13.1	18.7	20.8	21.4	19.2	10.1
O=C(CCCCCCC(=O)Nc1ccccc1)NO [Vorinostat] (top concentration 10000 nM)	8.8	10.1	7.5	8.2	7.7	1	0.8	9.9	17.6	13.4	8.7	3.9	0.8	2.3	10	9.7	8.2	11.3	11.9	-0.1
